Where “and” joins values, the source holds several entries; their conditions need not be identical. Equal entries are not always repeated.
Tested on: TWEAK-Fn14 signalling pathway, BRV5 cells
Test: Cell-based screening of individual peptides, gene expression microarray in TWEAK-stimulated BRV5 cells
Parameters: species or system human
Settings: 6 h; for regulation of probe genes by individual peptides: BRV5 + TWEAK 25 ng/mL, peptides 450 µM; for BIRC2 mRNA expression (normalized to NARS2) / HSP90B1 mRNA expression (normalized to NARS2) / IL6 mRNA expression (normalized to NARS2) / JUN mRNA expression (normalized to NARS2) / MAP4K4 mRNA expression (normalized to NARS2) / MAPK14 mRNA expression (normalized to NARS2) / NFKB2 mRNA expression (normalized to NARS2) / TNFRSF12A mRNA expression (normalized to NARS2) / TRAF2 mRNA expression (normalized to NARS2) / BIRC2 expression Z-Score / HSP90B1 expression Z-Score / IL6 expression Z-Score / JUN expression Z-Score / MAP4K4 expression Z-Score / MAPK14 expression Z-Score / NFKB2 expression Z-Score / TNFRSF12A expression Z-Score / TRAF2 expression Z-Score: individual peptides, BRV5 + TWEAK; for BIRC2 mRNA expression (normalized to NARS2) / HSP90B1 mRNA expression (normalized to NARS2) / IL6 mRNA expression (normalized to NARS2) / JUN mRNA expression (normalized to NARS2) / MAP4K4 mRNA expression (normalized to NARS2) / MAPK14 mRNA expression (normalized to NARS2) / NFKB2 mRNA expression (normalized to NARS2) / TNFRSF12A mRNA expression (normalized to NARS2) / TRAF2 mRNA expression (normalized to NARS2): 450 µM; for BIRC2 expression Z-Score / HSP90B1 expression Z-Score / IL6 expression Z-Score / JUN expression Z-Score / MAP4K4 expression Z-Score / MAPK14 expression Z-Score / NFKB2 expression Z-Score / TNFRSF12A expression Z-Score / TRAF2 expression Z-Score: normalized to NARS2
From the text: Pool 1 and 5 were therefore deconstructed to assess the effect of individual peptides and their activity on same cell-based screening. Pools 1 and 5 were composed of peptides 45, 46, 42, 3, 49, 11, and 13; and of peptides 1, 9, 30, 35, 41, 43, 7, and 14, respectively. As before, and shown in Figure 4B, the level of expression of probe genes on TWEAK-stimulated (T) BRV5 cells is overall higher than on non-stimulated (NT) one. […] The structural model of peptides 43, 30, 35 and 49 bound to TWEAK can be seen in Figure 5 and Supplementary Materials Figures S4–S6, respectively.
Three different cell lines were used in this study: BRV5, MDA-MB 435 (435-P), and HT29. The BRV5 is a highly metastatic brain cell line, obtained in one of our laboratories by primary culture from a brain of a nude mouse inoculated with human 435-Br1 brain metastatic cells, as previously described and used as a model to test the peptides in cell cultures. […] The triple negative 435-P cell line is a useful human breast cancer model that expresses both epithelial and melanocytic markers, and was included as the parental cell from which 435-Br1 metastatic variant was initially originated (both cell lines kindly provided by Dr Fabra at IDIBELL Institute, Hospitalet de Llobregat, Spain). Finally, HT29 human colon carcinoma cells obtained from the European Type Culture Collection (ECACC 91072201) were used as a positive control of TWEAK dependent Fn14 over-expressing cells to evaluate TWEAK-Fn14 axis of brain metastatic variants.
Appropriate cell culture conditions were established as the controls needed in the expression of genes with and without peptides and with and without TWEAK activation, both as pools and individually (see Supplementary Materials Figure S2). The protocol started with the seeding of 125,000 cells/well in 500 µL of culture media supplemented with 10% fetal bovine serum (CM+FBS10%) in 24-well dishes for 24 h before removing FBS (CM-FBS). After overnight starvation in CM-FBS culture, different peptide treatment conditions (at final concentration of 450 µM) were established in the presence or absence of TWEAK (25 ng/mL final concentration) (Peprotech EC, Ltd., London, UK). Some cells were treated with peptides at a single, unique, initial dose (time 0) while other were treated with repeated doses to account for the effect cell-culture degradation. These include a repeated treatment every hour (i.e., […]), every two hours (time 0, 2, and 4) and every three hours (time 0 and 3)—see Supplementary Materials Figure S2 for diagrammatic depiction. At time 6 (after six hours) cells were lysed and RNA extracted for transcriptomic analyses (see next). Cell were culture for six hours as this was the time needed to achieve the highest upregulation of the TWEAK-Fn14 axis upon TWEAK treatment as shown in previous time-course RT-PCR experiments (see Figure 2).
RNA from cells was extracted 6 h after treatments by direct lysis on the well. The RNeasy Micro kit (Qiagen, Hilden, Germany) was used to isolate total RNA from cell lysate following manufacturer’s protocols including an additional step of digestion with DNase I (Qiagen, Hilden, Germany). Total RNA concentration was measured in a NanoDrop 1000 spectrophotometer (Thermo Scientific, Waltham, MA, USA). The RNA extracted from treated and untreated cells (see above) was used as a proxy for gene expression.
The quantitative RT-PCR was performed using Fluidigm Dynamic Array FlexSix array with the specific primers for gene expression (Delta Genes Assays, Wet lab tested on Dynamic Array IFC) designed to RefSeq for detection by pPCR EvaGreen assay (Dynamic Array FlexSix, Fluidigm Corporation). Each Flex Six IFC has a total of six independent partitions. Each partition has a 12 × 12 format (12 assay inlets and 12 sample inlets) and will be run independently as a separate experimental run. […]

Row | Substance | regulation of probe genes by individual peptides | BIRC2 mRNA expression (normalized to NARS2) (mean of replicate columns) | HSP90B1 mRNA expression (normalized to NARS2) (mean of replicate columns) | IL6 mRNA expression (normalized to NARS2) (mean of replicate columns) | JUN mRNA expression (normalized to NARS2) (mean of replicate columns) | MAP4K4 mRNA expression (normalized to NARS2) (mean of replicate columns) | MAPK14 mRNA expression (normalized to NARS2) (mean of replicate columns) | NFKB2 mRNA expression (normalized to NARS2) (mean of replicate columns) | TNFRSF12A mRNA expression (normalized to NARS2) (mean of replicate columns) | TRAF2 mRNA expression (normalized to NARS2) (mean of replicate columns) | BIRC2 mRNA expression (normalized to NARS2) (replicate column 1) | HSP90B1 mRNA expression (normalized to NARS2) (replicate column 1) | IL6 mRNA expression (normalized to NARS2) (replicate column 1) | JUN mRNA expression (normalized to NARS2) (replicate column 1) | MAP4K4 mRNA expression (normalized to NARS2) (replicate column 1) | MAPK14 mRNA expression (normalized to NARS2) (replicate column 1) | NFKB2 mRNA expression (normalized to NARS2) (replicate column 1) | TNFRSF12A mRNA expression (normalized to NARS2) (replicate column 1) | TRAF2 mRNA expression (normalized to NARS2) (replicate column 1) | BIRC2 mRNA expression (normalized to NARS2) (replicate column 2) | further results
1 | 1: GNGTDDNSGTSY [Peptide 1] | lack of effect against the probe genes | 0.5966 | 1.937 | 0.002365 | 0.07082 | 0.1707 | 0.1634 | 0.03922 | 0.01975 | 0.011 | 0.538 | 1.874 | 0.002307 | 0.06535 | 0.1695 | 0.1671 | 0.04144 | 0.01871 | 0.009637 | 0.6552 | HSP90B1 mRNA expression (normalized to NARS2) (replicate column 2): 2.001; IL6 mRNA expression (normalized to NARS2) (replicate column 2): 0.002424; JUN mRNA expression (normalized to NARS2) (replicate column 2): 0.07629; MAP4K4 mRNA expression (normalized to NARS2) (replicate column 2): 0.1719; MAPK14 mRNA expression (normalized to NARS2) (replicate column 2): 0.1597; NFKB2 mRNA expression (normalized to NARS2) (replicate column 2): 0.037; TNFRSF12A mRNA expression (normalized to NARS2) (replicate column 2): 0.0208; TRAF2 mRNA expression (normalized to NARS2) (replicate column 2): 0.01237; BIRC2 expression Z-Score (listed as P1): 0.2639; HSP90B1 expression Z-Score (listed as P1): -0.5389; IL6 expression Z-Score (listed as P1): 0.4124; JUN expression Z-Score (listed as P1): -0.3055; MAP4K4 expression Z-Score (listed as P1): -0.3569; MAPK14 expression Z-Score (listed as P1): -0.6461; NFKB2 expression Z-Score (listed as P1): -0.1191; TNFRSF12A expression Z-Score (listed as P1): -0.0875 and -0.08748; TRAF2 expression Z-Score (listed as P1): -0.4104
2 | 42: YNGHVKDD [Peptide 42] | lack of effect against the probe genes | 0.5389 | 2.753 | 0.00216 | 0.08082 | 0.2296 | 0.2228 | 0.05504 | 0.02325 | 0.01684 | 0.5109 | 2.683 | 0.001723 | 0.07685 | 0.2119 | 0.2124 | 0.04902 | 0.02357 | 0.01769 | 0.5668 | HSP90B1 mRNA expression (normalized to NARS2) (replicate column 2): 2.8231; IL6 mRNA expression (normalized to NARS2) (replicate column 2): 0.002596; JUN mRNA expression (normalized to NARS2) (replicate column 2): 0.08479; MAP4K4 mRNA expression (normalized to NARS2) (replicate column 2): 0.2473; MAPK14 mRNA expression (normalized to NARS2) (replicate column 2): 0.2332; NFKB2 mRNA expression (normalized to NARS2) (replicate column 2): 0.06106; TNFRSF12A mRNA expression (normalized to NARS2) (replicate column 2): 0.02293; TRAF2 mRNA expression (normalized to NARS2) (replicate column 2): 0.01599; BIRC2 expression Z-Score (listed as P42): -0.1362; HSP90B1 expression Z-Score (listed as P42): 0.9131; IL6 expression Z-Score (listed as P42): 0.2346; JUN expression Z-Score (listed as P42): -0.1905; MAP4K4 expression Z-Score (listed as P42): 1.1128 and 1.113; MAPK14 expression Z-Score (listed as P42): 0.3913; NFKB2 expression Z-Score (listed as P42): 1.3869 and 1.387; TNFRSF12A expression Z-Score (listed as P42): 0.3098; TRAF2 expression Z-Score (listed as P42): -0.1276
3 | SWYDHMAGDSSY [Peptide 35] | lowest overall expression across all genes | 0.4507 | 1.621 | 0.002118 | 0.05317 | 0.1168 | 0.1368 | 0.02465 | 0.01131 | 0.008162 | 0.4318 | 1.578 | 0.00212 | 0.0528 | 0.1079 | 0.1402 | 0.02663 | 0.01132 | 0.007774 | 0.4696 | HSP90B1 mRNA expression (normalized to NARS2) (replicate column 2): 1.664; IL6 mRNA expression (normalized to NARS2) (replicate column 2): 0.002116; JUN mRNA expression (normalized to NARS2) (replicate column 2): 0.05355; MAP4K4 mRNA expression (normalized to NARS2) (replicate column 2): 0.1258; MAPK14 mRNA expression (normalized to NARS2) (replicate column 2): 0.1335; NFKB2 mRNA expression (normalized to NARS2) (replicate column 2): 0.02267; TNFRSF12A mRNA expression (normalized to NARS2) (replicate column 2): 0.01129; TRAF2 mRNA expression (normalized to NARS2) (replicate column 2): 0.008551; BIRC2 expression Z-Score (listed as P35): -0.7468; HSP90B1 expression Z-Score (listed as P35): -1.1014 and -1.101; IL6 expression Z-Score (listed as P35): 0.1984; JUN expression Z-Score (listed as P35): -0.5085; MAP4K4 expression Z-Score (listed as P35): -1.7018 and -1.702; MAPK14 expression Z-Score (listed as P35): -1.1107 and -1.111; NFKB2 expression Z-Score (listed as P35): -1.5063 and -1.506; TNFRSF12A expression Z-Score (listed as P35): -1.0476 and -1.048; TRAF2 expression Z-Score (listed as P35): -0.5479

Source: publication PMC7866087, “Evaluation of Computationally Designed Peptides against TWEAK, a Cytokine of the Tumour Necrosis Factor Ligand Family” (International Journal of Molecular Sciences, 2021)
